In patent US20030166653A1, “Novel form of (r)-n-[5-methyl-8-(4-methylpiperazin-1-yl)-1,2,3,4-tetrahydro-2-naphthyl]-4-morpholinobenzamide” (priority 2003, published 2003):
Each block holds one compound with its values, some of them ahead of it.

Tests used:
Assay type in all cases: physicochemical
[1] = Solubility in water by HPLC-analysis
[2] = Water sorption by dynamic vapour sorption (DVS); details: for hygroscopicity / water uptake in words: solid state characterization, monohydrobromide
[3] = Stability in water solutions (pH not adjusted), HPLC assay
Excerpt: (§1) The stability of [5-Methyl-8-(4-methylpiperazin-1-yl)-1,2,3,4-tetrahydro-2-naphtyl]-4-morpholinobenzamide(=“Base” in tables below) and (R)-N-[5-methyl-8-(4-methylpiperazin-1-yl)-1,2,3,4-tetrahydro-2-naphtyl]-4-morpholinobenzamide monohydrobromide Form A (=“Form A” in tables below), as bulk drug substance and in solutions at different pH levels after exposure to daylight and at elevated temperatures, has been studied. Three solutions were made from each batch of drug substance. One solution in pure water, one in 0.1 mM HCl (pH 4.1) and one in 0.1 M HCl (pH 1.1). The content of [5-Methyl-8-(4-methylpiperazin-1-yl)-1,2,3,4-tetrahydro-2-naphtyl]-4-morpholinobenzamide (=Base) was determined by HPLC, all results are calculated as the base.

[4] = Stability of solution in 0.1 M HCl, pH 1.1, HPLC assay
Excerpt: as §1

[5] = Stability of bulk drug substance (HPLC purity) in daylight and at 90° C.; details: for HPLC Purity (100% - related substances): bulk
Method: The stability of [5-Methyl-8-(4-methylpiperazin-1-yl)-1,2,3,4-tetrahydro-2-naphtyl]-4-morpholinobenzamide(=“Base” in tables below) and (R)-N-[5-methyl-8-(4-methylpiperazin-1-yl)-1,2,3,4-tetrahydro-2-naphtyl]-4-morpholinobenzamide monohydrobromide Form A (=“Form A” in tables below), as bulk drug substance and in solutions at different pH levels after exposure to daylight and at elevated temperatures, has been studied. The bulk substances are very stable, both in daylight and at 90° C. There are no significant differences between the HPLC purity of [5-Methyl-8-(4-methylpiperazin-1-yl)-1,2,3,4-tetrahydro-2-naphtyl]-4-morpholinobenzamide (=Base) and (R)-N-[5-methyl-8-(4-methylpiperazin-1-yl)-1,2,3,4-tetrahydro-2-naphtyl]-4-morpholinobenzamide monohydrobromide Form A (=Form A) at the tested conditions.

[6] = Stability of solution in 0.1 mM HCl, pH 4.1, HPLC assay
Excerpt: as §1

[7] = daylight RT, 14 days, % of start
[8] = daylight RT, 23 days, % of start

- solubility in water in words [1]: satisfactory
- solubility in water ([1]; as the free base by HPLC-analysis): 6.4 mg/mL
- water sorbed as measured by dynamic vapour sorption (DVS) ([2]; 80% RH and 25° C.): 0,8%
- hygroscopicity / water uptake in words [2]: non-hygroscopic
- Stability in water solutions, assay ([3]; 5° C., 8 days, % of start): 101%
- Stability in water solutions, assay ([3]; 5° C., 14 days, % of start): 100%
- Stability in water solutions, assay ([3]; 5° C., 23 days, % of start): 99%
- Stability in water solutions, assay ([3]; 5° C., Start): 0.0248 mg base/ml
- Stability in water solutions, assay ([3]; 5° C., Start, % of start): (100%)
- Stability in water solutions, assay ([3]; 60° C., 2 days, % of start): 84%
- Stability in water solutions, assay ([3]; 60° C., 8 days, % of start): 81%
- Stability in water solutions, assay ([3]; 60° C., 14 days, % of start): 76%
- Stability in water solutions, assay ([3]; 60° C., 23 days, % of start): 82%
- Stability in water solutions, assay ([3]; 60° C., Start): 0.0248 mg base/ml
- Stability in water solutions, assay ([3]; 60° C., Start, % of start): (100%)
- stability in pure water solution, comparison in words ([3]; 60° C., pH not adjusted): less stable than the Base
- Stability in water solutions, assay ([3]; Dark RT, 8 days, % of start): 99%
- Stability in water solutions, assay ([3]; Dark RT, 14 days, % of start): 99%
- Stability in water solutions, assay ([3]; Dark RT, 23 days, % of start): 97%
- Stability in water solutions, assay ([3]; Dark RT, Start): 0.0248 mg base/ml
- Stability in water solutions, assay ([3]; Dark RT, Start, % of start): (100%)
- Stability in water solutions, assay ([3]; daylight RT, 8 days, % of start): 100%
- Stability in water solutions, assay [3, 7]: 101%
- Stability in water solutions, assay [3, 8]: 100%
- Stability in water solutions, assay ([3]; daylight RT, Start): 0.0248 mg base/ml
- Stability in water solutions, assay ([3]; daylight RT, Start, % of start): (100%)
- Solution in 0.1 M HCl, pH 1.1, assay ([4]; 5° C., 8 days, % of start): 100%
- Solution in 0.1 M HCl, pH 1.1, assay ([4]; 5° C., 14 days, % of start): 100%
- Solution in 0.1 M HCl, pH 1.1, assay ([4]; 5° C., 23 days, % of start): 98%
- Solution in 0.1 M HCl, pH 1.1, assay ([4]; 5° C., Start): 0.504 mg base/ml
- Solution in 0.1 M HCl, pH 1.1, assay ([4]; 5° C., Start, % of start): (100%)
- Solution in 0.1 M HCl, pH 1.1, assay ([4]; 60° C., 2 days, % of start): 100%
- Solution in 0.1 M HCl, pH 1.1, assay ([4]; 60° C., 8 days, % of start): 97%
- Solution in 0.1 M HCl, pH 1.1, assay ([4]; 60° C., 14 days, % of start): 95%
- Solution in 0.1 M HCl, pH 1.1, assay ([4]; 60° C., 23 days, % of start): 88%
- Solution in 0.1 M HCl, pH 1.1, assay ([4]; 60° C., Start): 0.504 mg base/ml
- Solution in 0.1 M HCl, pH 1.1, assay ([4]; 60° C., Start, % of start): (100%)
- Solution in 0.1 M HCl, pH 1.1, assay ([4]; Dark RT, 8 days, % of start): 101%
- Solution in 0.1 M HCl, pH 1.1, assay ([4]; Dark RT, 14 days, % of start): 99%
- Solution in 0.1 M HCl, pH 1.1, assay ([4]; Dark RT, 23 days, % of start): 98%
- Solution in 0.1 M HCl, pH 1.1, assay ([4]; Dark RT, Start): 0.504 mg base/ml
- Solution in 0.1 M HCl, pH 1.1, assay ([4]; Dark RT, Start, % of start): (100%)
- Solution in 0.1 M HCl, pH 1.1, assay [4, 7]: 100%
- Solution in 0.1 M HCl, pH 1.1, assay [4, 8]: 98%
- Solution in 0.1 M HCl, pH 1.1, assay ([4]; daylight RT, Start): 0.504 mg base/ml
- Solution in 0.1 M HCl, pH 1.1, assay ([4]; daylight RT, Start, % of start): (100%)
- stability in solution in words ([4]; pH 1.1, except at 60° C.): good
- HPLC Purity (100% - related substances) ([5]; 90° C., 2 days): 99.6%
- HPLC Purity (100% - related substances) ([5]; 90° C., 8 days): 99.6%
- HPLC Purity (100% - related substances) ([5]; 90° C., 14 days): 99.5%
- HPLC Purity (100% - related substances) ([5]; 90° C., 21 days): 99.6%
- HPLC Purity (100% - related substances) ([5]; 90° C., 30 days): 99.4%
- HPLC Purity (100% - related substances) ([5]; 90° C., Start): 99.7%
- HPLC Purity (100% - related substances) ([5]; daylight, RT, 8 days): 99.6%
- HPLC Purity (100% - related substances) ([5]; daylight, RT, 14 days): 99.5%
- HPLC Purity (100% - related substances) ([5]; daylight, RT, 21 days): 99.5%
- HPLC Purity (100% - related substances) ([5]; daylight, RT, 30 days): 99.5%
- HPLC Purity (100% - related substances) ([5]; daylight, RT, Start): 99.7%
- stability of bulk substance in words ([5]; in daylight and at 90° C.): very stable
- Solution in 0.1 mM HCl, pH 4.1, assay ([6]; 5° C., 8 days, % of start): 100%
- Solution in 0.1 mM HCl, pH 4.1, assay ([6]; 5° C., 14 days, % of start): 100%
- Solution in 0.1 mM HCl, pH 4.1, assay ([6]; 5° C., 23 days, % of start): 100%
- Solution in 0.1 mM HCl, pH 4.1, assay ([6]; 5° C., Start): 0.0490 mg base/ml
- Solution in 0.1 mM HCl, pH 4.1, assay ([6]; 5° C., Start, % of start): (100%)
- Solution in 0.1 mM HCl, pH 4.1, assay ([6]; 60° C., 2 days, % of start): 97%
- Solution in 0.1 mM HCl, pH 4.1, assay ([6]; 60° C., 8 days, % of start): 93%
- Solution in 0.1 mM HCl, pH 4.1, assay ([6]; 60° C., 14 days, % of start): 90%
- Solution in 0.1 mM HCl, pH 4.1, assay ([6]; 60° C., 23 days, % of start): 81%
- Solution in 0.1 mM HCl, pH 4.1, assay ([6]; 60° C., Start): 0.0490 mg base/ml
- Solution in 0.1 mM HCl, pH 4.1, assay ([6]; 60° C., Start, % of start): (100%)
- Solution in 0.1 mM HCl, pH 4.1, assay ([6]; Dark RT, 8 days, % of start): 99%
- Solution in 0.1 mM HCl, pH 4.1, assay ([6]; Dark RT, 14 days, % of start): 99%
- Solution in 0.1 mM HCl, pH 4.1, assay ([6]; Dark RT, 23 days, % of start): 98%
- Solution in 0.1 mM HCl, pH 4.1, assay ([6]; Dark RT, Start): 0.0490 mg base/ml
- Solution in 0.1 mM HCl, pH 4.1, assay ([6]; Dark RT, Start, % of start): (100%)
- Solution in 0.1 mM HCl, pH 4.1, assay [6, 7]: 99%
- Solution in 0.1 mM HCl, pH 4.1, assay [6, 8]: 97%
- Solution in 0.1 mM HCl, pH 4.1, assay ([6]; daylight RT, Start): 0.0490 mg base/ml
- Solution in 0.1 mM HCl, pH 4.1, assay ([6]; daylight RT, Start, % of start): (100%)
- stability in solution in words ([6]; pH 4.1, except at 60° C.): good
SMILES: Br.Cc1ccc(N2CCN(C)CC2)c2c1CC[C@@H](NC(=O)c1ccc(N3CCOCC3)cc1)C2 [Form A, (R)-N-[5-methyl-8-(4-methylpiperazin-1-yl)-1,2,3,4-tetrahydro-2-naphtyl]-4-morpholinobenzamide monohydrobromide]

- hygroscopicity / water uptake in words [2]: readily resorbs water again
SMILES: Br.Cc1ccc(N2CCN(C)CC2)c2c1CC[C@@H](NC(=O)c1ccc(N3CCOCC3)cc1)C2 [Form B, (R)-N-[5-methyl-8-(4-methylpiperazin-1-yl)-1,2,3,4-tetrahydro-2-naphtyl]-4-morpholinobenzamide monohydrobromide]
